We go through 31 molecules from ChEMBL document CHEMBL4610076, “Renoprotective Mono- and Triterpenoids from the Fruit of Gardenia jasminoides” (J Nat Prod, 2020).

By EC50 is commonly meant the concentration needed to bring the measured effect to its halfway point.

The subject of the test is NRK-52E. Description: Cytoprotective activity against LPS-induced NRK-52E cells assessed as reduction in cell death measured every 5 min for 72 hrs by xCELLigence based RTCA analysis. The format is functional. The conditions noted are these: Rattus norvegicus.
On to `C=C(C)[C@@H]1CC[C@@H]2[C@]3(CC[C@]4(C)[C@@H]([C@@H]5CC[C@H]([C@](C)(O)CO)OC5)CC[C@@]24C)C[C@]13CCC(=O)OC`, for which the EC50 is more than 100 µM.

On to `C=C1C(CO[C@@H]2O[C@H](COC(=O)/C=C/c3cc(OC)c(O)c(OC)c3)[C@@H](O)[C@H](O)[C@H]2O)=CC(=O)CC1(C)C`, for which the EC50 was more than 100 µM.

As for `CC1=C(CO)C(C)(C)C[C@H](O)[C@H]1O`, the EC50 was more than 100 µM.

As to `CC1(C)CC(=O)C=C(C(=O)O)[C@]1(C)O`, the EC50 is more than 100 µM.

Regarding `CC1=C(CO)C(C)(C)C[C@H](O)[C@@H]1O[C@@H]1O[C@H](CO)[C@@H](O)[C@H](O)[C@H]1O`, the EC50 was more than 100 µM.

As for `C=C(C)[C@@H]1CC[C@@H]2[C@]3(CC[C@]4(C)[C@@H]([C@H](CO)CC/C=C(/C)CO)CC[C@@]24C)C[C@]13CCC(=O)O`, the EC50 was determined as 11.5 µM.

As for `Cc1c(C)c2c(c(C)c1O)CCC(C)(C(=O)O)O2` (stereo unspecified) [TROLOX], the EC50 was 1.9 µM.

`CC1=C(CO)C(C)(C)C[C@H](O)[C@@H]1O`: the EC50 is more than 100 µM.

Take `CC1(C)CC(O)CC2=C1C(=O)OC2` (stereo unspecified): the EC50 was more than 100 µM.

Turning to `CC1=C(C(=O)O)C(C)(C)C[C@H](O)[C@@H]1O`, the EC50 was 0.146 µM.

Turning to `CC1=CC(=O)CC(C)(C)[C@]1(O)CO`, the EC50 is more than 100 µM.

Turning to `CC1(C)C[C@H](O)[C@H](O[C@@H]2O[C@H](CO)[C@@H](O)[C@H](O)[C@H]2O)C2=C1C(=O)OC2`, the EC50 was more than 100 µM.

Consider `CC1=C(C(=O)O)C(C)(C)C=CC1=O`, for which the EC50 was more than 100 µM.

Turning to `CO[C@H]1C[C@]2(C)C(=CC[C@@H]3[C@@]4(C)CC[C@H](O)C(CO)(CO)[C@@H]4CC[C@]32C)c2c1ccc(C)c2C`, the half-maximal effective concentration (EC50) was more than 100 µM.

As to `CC1(C)CC[C@]2(C(=O)O)CC[C@]3(C)C(=CC[C@@H]4[C@@]5(C)CC[C@H](O)[C@@](C)(CO)[C@@H]5[C@H](O)C[C@]43C)[C@@H]2[C@@H]1O`, the EC50 stood at 0.118 µM.

`CC1=CC(=O)CC(C)(C)[C@@H]1CO[C@@H]1O[C@H](CO)[C@@H](O)[C@H](O)[C@H]1O`: the EC50 is more than 100 µM.

In the case of `C=C(C)[C@@H]1CC[C@@H]2[C@]3(CC[C@]4(C)[C@@H]([C@@H]5CC[C@H]([C@](C)(O)CO)OC5)CC[C@@]24C)C[C@]13CCC(=O)O`, the EC50 is 38.4 µM.

Consider `COc1cc(/C=C/C(=O)OC[C@H]2O[C@@H](OC[C@H]3C(C)=CC(=O)CC3(C)C)[C@H](O)[C@@H](O)[C@@H]2O)cc(OC)c1O`, for which the EC50 was determined as 35.6 µM.

For the molecule `C=C(C)[C@@H]1CC[C@@H]2[C@]3(CC[C@]4(C)[C@@H]([C@H](CO)CC/C=C(/C)CO)CC[C@@]24C)C[C@]13CCC(=O)OC`, the EC50 is more than 100 µM.

With `CC1=CC(=O)CC(C)(C)[C@@H]1CO`, the EC50 is 1.4 µM.

Consider `CC1=C(C(=O)O[C@@H]2O[C@H](CO)[C@@H](O)[C@H](O)[C@H]2O)C(C)(C)CC[C@@H]1O`, for which the EC50 was more than 100 µM.

As for `C[C@@H]1CC[C@]2(C(=O)O)CC[C@]3(C)C(=CC[C@@H]4[C@@]5(C)CC[C@H](O)C(CO)(CO)[C@@H]5CC[C@]43C)[C@@H]2[C@]1(C)O`, the EC50 is 1.6 µM.

In the case of `C[C@H]1[C@H](C)CC[C@]2(C(=O)O)CC[C@]3(C)C(=CC[C@@H]4[C@@]5(C)CC[C@H](O)[C@@](C)(CO)[C@@H]5CC[C@]43C)[C@H]12`, the EC50 was more than 100 µM.

With `CC1=CC(=O)CC(C)(C)[C@H]1CO[C@@H]1O[C@H](CO)[C@@H](O)[C@H](O)[C@H]1O`, the EC50 is 1.2 µM.

On to `CC1(C)CC(=O)C=C(C(=O)O)[C@@]1(C)O`, for which the EC50 was more than 100 µM.

As to `C[C@@H]1CC[C@]2(C(=O)O)CC[C@]3(C)C(=CC[C@@H]4[C@@]5(C)CC[C@H](O)C(C)(C)[C@@H]5CC[C@]43C)[C@@H]2[C@]1(C)O` [POMOLIC ACID], the EC50 amounted to 0.0142 µM.

Consider `C[C@@H]1CC[C@]2(C(=O)O)CC[C@]3(C)C(=CC[C@@H]4[C@@]5(C)CC[C@H](O)[C@@](C)(CO)[C@@H]5[C@H](O)C[C@]43C)[C@@H]2[C@]1(C)O`, for which the EC50 was more than 100 µM.

In the case of `COC(=O)CC[C@]12C[C@]13CC[C@]1(C)[C@@H]([C@H](CO)CC/C=C(/C)CO)CC[C@@]1(C)[C@@H]3CC[C@H]2C(C)(C)O`, the EC50 worked out at 26.8 µM.

On to `C=C(CO)[C@@H]1CC[C@@H]2[C@]3(CC[C@]4(C)[C@@H]([C@H](CO)CC/C=C(/C)CO)CC[C@@]24C)C[C@]13CCC(=O)OC`, for which the EC50 is more than 100 µM.

On to `Cc1ccc2c(c1C)C1=CC[C@@H]3[C@@]4(C)CC[C@H](O)C(CO)(CO)[C@@H]4CC[C@@]3(C)[C@]1(C)C[C@@H]2O`, for which the EC50 is more than 100 µM.

Take `CC1=C(C(=O)O)C(C)(C)[C@@H](O)[C@H](O)C1`: the EC50 is more than 100 µM.
